# Measurements: US20220062330A1, “USE OF THIOSULFATE TO POTENTIATE THE ANTI-PATHOGENIC EFFECT OF LACTOBACILLI” (NEXBIOME THERAPEUTICS, priority 2012, published 2022)
# System: Candida albicans
# Details: sodium thiosulfate alone in MRS medium, 1 g/l and 3 g/l, regardless of the concentration studied
structure (smiles),measurement,value
O=S(O)(O)=S [sodium thiosulfate],antifungal potential on Candida albicans growth,No antifungal potential
